Values belong to the compound of their own block, whether it stands above or below them. Where a SMILES comes first, the peptide text is derived from it. [ ]: non-standard residue; d: D form.
Columns and labels:
[1] = Oral absorption of calcium with alkylsaccharide; blood levels in volunteers; assay type: in vivo, human; details: oral gelatin capsules, calcium citrate admixed with 3% dodecyl maltoside
Protocol: Calcium citrate is obtained from General Nutrition Corp. as 1000 mg tablets. The tablets are ground in a mortar and pestle until a fine uniform powder is created. The powder is admixed with 3% dodecyl maltoside, pharmaceutical grade (Inalco Chemical Co., Milan Italy) and filled into gelatin capsules, size #000-25 mm length (Capsuline, Pompano Beach, Fla.) and administered to volunteers. Blood samples are collected and calcium levels are measured by commercial clinical laboratory. The calcium blood levels obtained following oral administration with dodecyl maltoside are seen to be at least 20% higher than those obtained in the absence of dodecyl maltoside.

[2] = Oral absorption of resveratrol with sucrose laurate; blood levels in volunteers; assay type: in vivo, human; details: oral gelatin capsules, admixed with 5% w/w sucrose laurate
Protocol: Resveratrol was obtained from RevGenetics, Miami, Fla., as 300 mg gel capsules. Capsules were opened by carefully separating the two halves. The contents were combined and admixed with 5% w/w food grade sucrose laurate alkylsaccharide (Ryoto Sugar Ester M-1216, Mitsubishi-Kagaku Tokyo, Japan). Gelatin capsules were filled with the admixture and administered to volunteers. Blood samples are collected and resveratrol levels are measured by the method of Soleas et al. (Methods Enzymol 335: 130-45 (2001)). The resveratrol blood levels obtained following oral administration with sucrose laurate are at least 20% higher than those obtained in the absence of sucrose laurate.

[3] = mouse, in vivo
Protocol: (§1) Doses of 1 mg each were also administered to mice by the IP, SC and IM routes in solutions containing 0.18% tetradecyl beta-D-maltoside and compared to administration by oral gavage in a solution containing 0.3% (3 mg/mL wt/vol) of tetradecyl-beta-D-maltoside.
(§2) Six week-old male Swiss Webster mice weighing approximately 30 gm were maintained at a constant temperature (24 C) with lights on from 07:00 to 19:00 h, and allowed food and water ad libitum until used for uptake studies. […] For sc, im, and ip delivery, the peptide was dissolved in sterile phosphate buffered saline (PBS, pH 7.2) at a concentration of 1 mg/200 μL as described previously containing 0.18% tetradecyl-beta-D-maltoside. For oral gavage [D-Leu-4]OB3 was dissolved in 0.3% dodecyl-beta-D-maltoside reconstituted in PBS (pH 7.2) at a concentration of 1 mg/200 μL. […]
(§3) The [D-Leu-4]OB3 competitive ELISA assay was carried out as follows. […] Absorbance was read at 405 nm with a Molecular Devices microplate reader (MDS Sciex, Concord, Ontario Canada). […] The relative bioavailability was determined by plotting the serum concentrations of mouse [D-Leu-4]OB3 vs. time following ip, sc, or im delivery using the graphics program SigmaPlot™ 8.0 (SPSS Science, Chicago, Ill., USA). The area under each curve (AUC) was calculated with a function of this program.

in vivo = details: male, Swiss Webster, mouse, po, 1 mg
Protocol: as §1, §2, §3

SMILES: O=C([O-])CC(O)(CC(=O)[O-])C(=O)[O-].O=C([O-])CC(O)(CC(=O)[O-])C(=O)[O-].[Ca+2].[Ca+2].[Ca+2] [Calcium citrate]
calcium blood levels, increase versus absence of dodecyl maltoside [1]: at least 20%

resveratrol blood levels, increase versus absence of sucrose laurate [2]: at least 20%
SMILES: Oc1ccc(C=Cc2cc(O)cc(O)c2)cc1 [Resveratrol]

Relative Oral Bioavailability Compared to Three Injection Modes (% of AUC achieved by each respective injection) [3]: 37.8% of IM AUC | F rel (in vivo): 47.3%
SMILES: CC(C)C[C@@H](NC(=O)[C@H](CO)NC(=O)[C@H](CS)NC(=O)[C@@H](N)CO)C(=O)N1CCC[C@H]1C(=O)N[C@@H](CCC(N)=O)C(=O)N[C@H](C(N)=O)[C@@H](C)O [[D-Leu-4]OB3, Ser-Cys-Ser-D-Leu-Pro-Gln-Thr] (H-SCS[dL]PQT-NH2; N-terminus assumed)

— patent publication US20120070487A1, “ALKYLSACCHARIDE COMPOSITIONS WITH NUTRACEUTICALS” (AEGIS THERAPEUTICS LLC, priority 2010, published 2012)
